From ChEMBL document CHEMBL1126420, “Design and synthesis of novel ligands for the 5-HT3 and the 5-HT4 receptor” (Bioorg Med Chem Lett, 1992)

Legend:
[1] = target: T1, Serotonin 3 (5-HT3) receptor (Homo sapiens) (UniProt P46098+A5X5Y0+O95264+Q70Z44+Q8WXA8); assay: Evaluated for the antagonistic activity against Serotonin 5-hydroxytryptamine 3 receptor in isolated guinea pig ileum (GPI); type: functional, tissue-based; conditions: Cavia porcellus, target entry is the homologue from another species
[2] = target: T1, Serotonin 3 (5-HT3) receptor (Homo sapiens); assay: Evaluated for the antagonistic activity against Serotonin 5-hydroxytryptamine 3 receptor in isolated rabbit vagus nerve (RVN); type: functional, tissue-based; conditions: Oryctolagus cuniculus, target entry is the homologue from another species
[3] = target: Serotonin 3 (5-HT3) receptor; assay: Antagonistic activity against Serotonin 5-hydroxytryptamine 3 receptor in isolated rabbit vagus nerve (RVN); type: functional, tissue-based, Oryctolagus cuniculus
[4] = target: 5-hydroxytryptamine receptor 4 (Cavia porcellus) (UniProt O70528); assay: Agonistic activity against Serotonin 5-hydroxytryptamine 4 receptor in low frequency field stimulation of guinea-pig ileum (FSGPI).; type: functional, tissue-based
[5] = target: Serotonin 3 (5-HT3) receptor; assay: Antagonistic activity against Serotonin 5-hydroxytryptamine 3 receptor of isolated guinea pig ileum (GPI); type: functional, tissue-based, Cavia porcellus
[6] = target: Serotonin 3 (5-HT3) receptor; assay: (§1) Evaluated for the antagonistic activity against Serotonin 5-hydroxytryptamine 3 receptor in isolated perfused rabbit heart (RH); type: functional, Oryctolagus cuniculus
[7] = target: T2, Serotonin 3 receptor (5HT3) (Mus musculus) (UniProt Q9JHJ5+P23979); assay: Compound was evaluated for binding to 5-hydroxytryptamine 3 receptor in N1E cells using [3H]- -Tropisetron as radioligand; type: cell-based
[8] = target: 5-hydroxytryptamine receptor 4 (Cavia porcellus) (UniProt O70528); assay: Agonistic activity against Serotonin 5-hydroxytryptamine 4 receptor in non-electrically stimulated guinea-pig ileum.; type: functional, tissue-based
[9] = target: T1, Serotonin 3 (5-HT3) receptor (Homo sapiens); assay: as §1; type: functional; conditions: Oryctolagus cuniculus; target entry is the homologue from another species
[10] = target: 5-hydroxytryptamine receptor 4 (Cavia porcellus) (UniProt O70528); conditions: Ileum
Description: pD2 value in the non-electrically stimulated guinea pig ileum

[11] = target: T2, Serotonin 3 receptor (5HT3) (Mus musculus); assay: Compound was evaluated for binding to Serotonin 5-hydroxytryptamine 3 receptor in N1E cells using [3H]- -Tropisetron as radioligand; type: cell-based
[12] = target: 5-hydroxytryptamine receptor 4 (Cavia porcellus, UniProt O70528); assay: Evaluated for the antagonistic activity against Serotonin 5-hydroxytryptamine 4 receptor in non-electrically stimulated guinea-pig ileum.; type: functional, tissue-based; conditions: read-out: pA2 (converted)
[13] = pKa value was determined; type: physicochemical
Rattus norvegicus = species on record: Rattus norvegicus; assay: Effective dose inhibited the Bezold-Jarisch reflex in rats was determined; type: functional
[14] = target: 5-hydroxytryptamine receptor 4 (Cavia porcellus) (UniProt O70528); assay: Agonistic activity against Serotonin 5-HT4 receptor in low frequency field stimulation of guinea-pig ileum (FSGPI); type: functional, tissue-based
[15] = target: Serotonin 3 (5-HT3) receptor; assay: Evaluated for the antagonistic activity against 5-hydroxytryptamine 3 receptor in isolated perfused rabbit heart (RH); type: functional, Oryctolagus cuniculus
[16] = target: Serotonin 3 (5-HT3) receptor; assay: Evaluated for the antagonistic activity against 5-hydroxytryptamine 3 receptor in isolated rabbit vagus nerve (RVN); type: functional, tissue-based, Oryctolagus cuniculus
[17] = target: 5-hydroxytryptamine receptor 4 (Cavia porcellus) (UniProt O70528); assay: Evaluated for the agonistic activity against Serotonin 5-HT4 receptor in non-electrically stimulated guinea-pig ileum.; type: functional, tissue-based
[18] = target: 5-hydroxytryptamine receptor 4 (Cavia porcellus) (UniProt O70528); conditions: Ileum; remark: listed apart in the source
Description: Evaluated for the agonistic activity against 5-HT4 receptor in non-electrically stimulated guinea-pig ileum.

Sequence of 5-hydroxytryptamine receptor 4 (Cavia porcellus) (O70528 whole entry, the tested form may be a part): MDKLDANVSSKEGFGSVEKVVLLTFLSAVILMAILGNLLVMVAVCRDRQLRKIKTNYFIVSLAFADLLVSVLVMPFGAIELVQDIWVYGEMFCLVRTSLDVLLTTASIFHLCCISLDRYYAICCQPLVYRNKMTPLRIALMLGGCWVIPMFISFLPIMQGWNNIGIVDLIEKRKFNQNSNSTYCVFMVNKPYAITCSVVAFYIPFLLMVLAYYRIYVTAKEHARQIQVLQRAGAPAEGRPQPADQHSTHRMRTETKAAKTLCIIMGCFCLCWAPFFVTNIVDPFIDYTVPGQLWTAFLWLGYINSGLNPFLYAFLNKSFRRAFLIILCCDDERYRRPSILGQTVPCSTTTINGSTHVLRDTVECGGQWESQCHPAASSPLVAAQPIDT
T2 sequence (P23979 whole entry, looked up): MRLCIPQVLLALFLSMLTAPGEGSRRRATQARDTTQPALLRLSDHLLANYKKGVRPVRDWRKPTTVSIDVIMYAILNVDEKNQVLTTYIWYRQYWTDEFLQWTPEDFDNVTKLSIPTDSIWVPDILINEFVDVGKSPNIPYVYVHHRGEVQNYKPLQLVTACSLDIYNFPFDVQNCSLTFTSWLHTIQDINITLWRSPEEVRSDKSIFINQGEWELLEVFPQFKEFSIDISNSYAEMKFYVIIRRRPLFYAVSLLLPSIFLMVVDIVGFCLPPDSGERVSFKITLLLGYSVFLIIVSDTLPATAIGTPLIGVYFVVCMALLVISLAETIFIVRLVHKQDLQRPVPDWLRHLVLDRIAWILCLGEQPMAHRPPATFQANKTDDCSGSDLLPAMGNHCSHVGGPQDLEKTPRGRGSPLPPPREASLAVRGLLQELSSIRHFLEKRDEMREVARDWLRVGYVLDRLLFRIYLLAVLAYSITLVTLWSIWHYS
T2 sequence (Q9JHJ5 whole entry, looked up): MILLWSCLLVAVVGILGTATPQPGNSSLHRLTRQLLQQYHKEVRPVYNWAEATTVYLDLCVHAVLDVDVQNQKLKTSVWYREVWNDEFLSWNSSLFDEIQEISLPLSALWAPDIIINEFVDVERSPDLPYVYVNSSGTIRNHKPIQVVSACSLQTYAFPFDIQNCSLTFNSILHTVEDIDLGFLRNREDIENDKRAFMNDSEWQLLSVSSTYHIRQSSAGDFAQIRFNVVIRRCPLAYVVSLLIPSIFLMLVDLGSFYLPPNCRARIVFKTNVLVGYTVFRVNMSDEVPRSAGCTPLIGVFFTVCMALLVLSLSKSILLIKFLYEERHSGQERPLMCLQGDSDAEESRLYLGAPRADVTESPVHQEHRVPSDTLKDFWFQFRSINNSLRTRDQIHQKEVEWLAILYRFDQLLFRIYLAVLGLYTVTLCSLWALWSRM
Sequence of 5-hydroxytryptamine receptor 4 (O70528 whole entry): as the sequence (O70528 whole entry, the tested form may be a part) above

In the case of NCCc1ccnc2ccc(O)cc12, the pD2 [1] is reported as 4.5 and the pD2 [2] is reported as 5.8.
For COc1cc(N)c(Cl)cc1C(=O)N[C@H]1CCN(CCCOc2ccc(F)cc2)C[C@H]1OC [CISAPRIDE], the pA2 [3] was 6.5, the pD2 [4] was 6 and the pA2 [5] was 7.2. It also gave a pA2 [6] of 7.1.
In the case of Cc1nccn1CC1CCc2c(c3ccccc3n2C)C1=O (configuration not stated), the pD2 [4] is reported as 5.1 and the pKD [7] is reported as 7.7.
In the case of Nc1c(Cl)cc(C(=O)NC2CCN3CCCC2C3)c2nsnc12 (configuration not stated), the pA2 [3] is reported as 7.7, the pD2 [4] is reported as 7.2 and the pD2 [8] is reported as 6. For the same compound, the pA2 [5] was 6.8.
N#Cc1[nH]c2ccc(O)cc2c1CCN gave a pD2 [1] of 5.4, a pD2 [2] of 7.2 and a pD2 [9] of 4.
Work on CN1[C@@H]2CC[C@H]1C[C@@H](OC(=O)c1c[nH]c3ccccc13)C2 [TROPISETRON] yielded a pD2 [10] of 5.7, a pKD [11] of 9.1 and a Kb [12] of 2000 nM. The pKa [13] was 8.4 and the ED50 (Rattus norvegicus) was 0.72 µg/kg.
Compound Cc1[nH]c2ccc(O)cc2c1CC(=N)NCCCN1CCCC1=O has a pD2 [14] of 5.8.
Nc1c(Cl)cc(C(=O)NC2CCN3CCCC2C3)c2ncccc12 (configuration not stated) gave a pD2 [4] of 7.5, a pD2 [8] of 7.1 and a pA2 [5] of 6.7.
CN1C2CC(OC(=O)c3c[nH]c4ccccc34)CC1C1OC12 (configuration not stated) showed a pD2 [4] of 0, a pA2 [15] of 11 and a pKD [11] of 9.2. It also gave a pA2 [5] of 8.8, a Kb [12] of 501 nM and a pKa [13] of 6.64. The pA2 [16] was 10.6.
With O=C(CC1CC2CCC(C1)N2)c1c[nH]c2cc(O)ccc12 (configuration not stated) the pA2 [5] was 6, the pD2 [2] was 7 and the pD2 [9] was 6.
In the case of Cc1[nH]c2ccc(O)cc2c1CCN, the pD2 [1] is reported as 5.1, the pD2 [2] is reported as 5.6 and the pD2 [9] is reported as 5.5.
N/C(Cc1c[nH]c2ccc(O)cc12)=N\CCc1c[nH]c2ccc(O)cc12 showed a pD2 [14] of 6.3.
With Nc1c(Cl)cc(C(=O)NC2CN3CCC2CC3)c2ncccc12 (configuration not stated) the pA2 [3] was 9, the pD2 [4] was 7.2 and the pD2 [8] was 6. It also gave a pA2 [5] of 7.9.
COc1cc(N)c(Cl)cc1C(=O)NC1CN2CCC1CC2 (configuration not stated) showed a pD2 [4] of 6.2 and a pD2 [8] of 5.9.
Compound COc1cc(N)c(Cl)cc1C(=O)N[C@H]1CCN2CCC[C@@H]1C2 has a pD2 [4] of 7.1, a pD2 [8] of 5.7 and a pA2 [6] of 8.6.
COc1ccc2[nH]ccc2c1C(=O)NC1CN2CCC1CC2 (configuration not stated) gave a pD2 [4] of 6.6, a pD2 [8] of 7.1 and a pA2 [5] of 7.2.
Work on CCN(CC)Cc1coc(-c2cc(Cl)c(N)cc2OC)n1 yielded a pD2 [14] of 6.1 and a pD2 [17] of 6.
Compound Nc1c(Cl)cc(C(=O)NC2CN3CCC2CC3)c2nsnc12 (configuration not stated) has a pA2 [3] of 8.9, a pD2 [4] of 5.8 and a pD2 [8] of 5.5. For the same compound, the pA2 [5] was 7.7.
CCN(CC)CCNC(=O)c1cc(Cl)c(N)cc1OC [METOCLOPRAMIDE] showed a pD2 [4] of 5.5, a pA2 [5] of 5.2 and a pA2 [6] of 7.1.
CCN(CC)CCN1CCc2cc(N)c(Cl)cc2C1=O gave a pD2 [14] of 5.2 and a pD2 [17] of 5.1.
For CCN(CC)CCOC(=O)c1cc(Cl)c(N)cc1OC, the pD2 [17] was 7.
NCCc1c[nH]c2ccc(O)cc12 gave a pD2 [18] of 7.9 and a pD2 [14] of 7.
NCCC1CCCc2ccc(O)cc21 (configuration not stated) gave a pD2 [1] of 5.2, a pD2 [2] of 6 and a pD2 [9] of 5.7.
